According to PMC7822874, “Chemoprotective antimalarials identified through quantitative high-throughput screening of Plasmodium blood and liver stage parasites” (Scientific Reports, 2021):
Where two headings read alike, the source gives them in different places.

Key:
[1] = test system: T1, Plasmodium falciparum Dd2-attB (parental line), asexual blood stages; assay: microbe, parasite or virus in culture; parameters: species or system P. falciparum Dd2-attB in human erythrocytes; SYBR Green-I proliferation assay, Dd2-attB parental line, asexual blood stages; settings: Plasmodium falciparum, DD2, Erythrocyte, 72 h, read-out: Calculated / Average Log AC50 (M), mean of replicates, 72 h (converted)
T1 construct: Dd2-attB, the isogenic parental line

[2] = test system: HepG2-A16-CD81EGFP cells; settings: average of 2 wells; for HepG2 viability signal, 3 uM, repeat 2: nominal 3 uM (10 mM stock), 4.5 uM for 15 mM, 3.6 uM for 12 mM, 6 uM for 20 mM stock
[3] = test system: Plasmodium falciparum Dd2 asexual blood stage parasites; assay: microbe, parasite or virus in culture; parameters: species or system Plasmodium falciparum Dd2 in human erythrocytes; single determination (one 11-point concentration-response curve); settings: Plasmodium falciparum, DD2, Erythrocyte, 72 h; read-out: AC50
[4] = test system: luciferase-expressing P. berghei liver stage parasites in HepG2 cells; assay: Inhibition of liver-stage development assay (ILSDA), Method 2 (WRAIR, 96-well); format: cell-based, Plasmodium berghei; settings: for AC50: Plasmodium berghei, HepG2, Method 2; for Activity direction (Decrease / Inactive): P. berghei liver stage, Method 2, dose response
[5] = test system: P. berghei-ANKA-GFP-LucCON liver stage parasites in HepG2-A16-CD81EGFP cells; assay: P. berghei liver stage Pb-Luc assay, Method 1 (UCSD, 1536-well); as to Pb-Luc signal, 1 uM, repeat 1: reference of the scale not given here; as to Pb-Luc signal, 1 uM, repeat 2: reference of the scale not given here; as to Pb-Luc signal, 1 uM, repeat 3: reference of the scale not given here; as to Pb-Luc signal, 3 uM, repeat 1: reference of the scale not given here; as to Pb-Luc signal, 3 uM, repeat 2: reference of the scale not given here; as to Pb-Luc signal, 3 uM, repeat 3: reference of the scale not given here; format: cell-based, Plasmodium berghei; settings: for activity at 1 µM / activity at 3 µM: 48 h, average of 2 wells, 1536-well plate; for activity at 1 µM: nominal 1 uM (10 mM stock), […] for 15 mM, 1.2 uM for 12 mM, 2 uM for 20 mM stock; for activity at 3 µM: nominal 3 uM (10 mM stock), 4.5 uM for 15 mM, 3.6 uM for 12 mM, 6 uM for 20 mM stock; for Max Resp (signal direction of the dose response): Decrease = decreasing P. berghei viability with dose, Increase = increasing signal, Inactive = no dose response
[6] = in vitro; settings: human, n = 1
[7] = in vitro; settings: human, HepG2-A16-CD81EGFP cells, uninfected
[8] = nominal 1 uM (10 mM stock), […] for 15 mM, 1.2 uM for 12 mM, 2 uM for 20 mM stock
[9] = Plasmodium berghei, repeat 1, read-out: Pb-Luc signal, 1 uM, repeat 1
[10] = Plasmodium berghei, repeat 2, read-out: Pb-Luc signal, 1 uM, repeat 2
[11] = Plasmodium berghei, repeat 3, read-out: Pb-Luc signal, 1 uM, repeat 3
[12] = Plasmodium berghei, repeat 1, read-out: Pb-Luc signal, 3 uM, repeat 1
[13] = Plasmodium berghei, repeat 2, read-out: Pb-Luc signal, 3 uM, repeat 2
[14] = Plasmodium berghei, repeat 3, read-out: Pb-Luc signal, 3 uM, repeat 3
[15] = Plasmodium berghei, Method 1, Hill fit, 50% of maximum activity response, read-out: AC50
[16] = Plasmodium berghei, Method 1, log10 of molar AC50 from Hill fit, read-out: Log AC50 (converted)

## COC(=O)c1ccc(N(CCN2CCC(F)(F)CC2)c2ccc(F)cc2)cn1 [NCGC00390009-01]
[1]
  AC50: 1.53e-05 M

## CC1=C[C@@H](CNCc2cccnc2)[C@H](C(C)C)C[C@H]1Cc1nnc(-c2ccc([N+](=O)[O-])cc2)o1 [NCGC00394797-01]
[2]; nominal 1 uM (10 mM stock), […] for 15 mM, 1.2 uM for 12 mM, 2 uM for 20 mM stock, repeat 1
  HepG2 viability signal, 1 uM, repeat 1: 104.31%
[2]; [8]
  HepG2 viability signal, 1 uM, repeat 2: 102.23%
[2]
  HepG2 viability signal, 3 uM, repeat 2: 86.98%
[3]
  AC50: 5310 nM
[4]; Method 2, Decrease = decreasing P. berghei viability with dose, Increase = increasing signal, Inactive = no dose response
  Max Resp (signal direction of the dose response): Decrease
[4]; Hill fit, 50% of maximum activity response, read-out: AC50
  AC50: 562 nM
[4]; log10 of molar AC50 from Hill fit, read-out: Log AC50 (converted)
  AC50: 562 nM
[5]; [9]
  activity at 1 µM: 72%
[5]; [10]
  activity at 1 µM: 75%
[5]; [11]
  activity at 1 µM: 71.6%
[5]; [12]
  activity at 3 µM: 23.8%
[5]; [13]
  activity at 3 µM: 19.3%
[5]; [14]
  activity at 3 µM: 23.7%
[5]; [15]
  AC50: 1580 nM
[5]; [16]
  AC50: 1580 nM
[6]; hepg2
  CC50 at 48 h: 24.3 µM

## O=C(O)c1ccnc2cc(C(OCCN3CCC(F)(F)CC3)c3ccccc3Cl)[nH]c12 (stereo not drawn) [NCGC00414992-02]
[1]
  AC50: 1.53e-05 M

## CC(C)c1ccc(CC(=O)N2CCCc3ncc(C(=O)Nc4cccnc4)cc32)cc1 [NCGC00420003-01]
[2]; [8]
  HepG2 viability signal, 1 uM, repeat 2: 94.19%
[2]
  HepG2 viability signal, 3 uM, repeat 2: 54.54%
[3]
  AC50: 863 nM
[4]
  Activity direction (Decrease / Inactive): Inactive
[7]
  viability at 48 h, 1 µM: 99%
  viability at 48 h, 3 µM: 35.6%
[5]; Method 1
  Max Resp (signal direction of the dose response): Inactive
[5]; [9]
  activity at 1 µM: 24.7%
[5]; [10]
  activity at 1 µM: 4.89%
[5]; [11]
  activity at 1 µM: 35.4%
[5]; [12]
  activity at 3 µM: 3.66%
[5]; [13]
  activity at 3 µM: 2.01%
[5]; [14]
  activity at 3 µM: 4.19%
[6]; HepG2 cells
  CC50 at 48 h: 19.8 µM

## Cc1nn2c(c1-c1ccccc1-c1ccccc1)N(CC1CC1)CCC2 [NCGC00420435-01]
[2]; [8]
  HepG2 viability signal, 1 uM, repeat 2: 101.46%
[2]
  HepG2 viability signal, 3 uM, repeat 2: 45.92%
[3]
  AC50: 968 nM
[4]
  Activity direction (Decrease / Inactive): Inactive
[7]
  viability at 48 h, 1 µM: 102%
  viability at 48 h, 3 µM: 53.6%
[5]; [9]
  activity at 1 µM: 52.9%
[5]; [10]
  activity at 1 µM: 51.5%
[5]; [11]
  activity at 1 µM: 66.1%
[5]; [12]
  activity at 3 µM: 2.42%
[5]; [13]
  activity at 3 µM: 7.19%
[5]; [14]
  activity at 3 µM: 5.92%
[5]; [15]
  AC50: 1580 nM
[5]; [16]
  AC50: 1580 nM
[6]; HepG2 cells
  CC50 at 48 h: 22.2 µM

## Cc1nn2c(c1-c1ccccc1-c1ccccc1)N(CCC(C)C)CCC2 [NCGC00420437-01]
[2]; [8]
  HepG2 viability signal, 1 uM, repeat 2: 106.23%
[2]
  HepG2 viability signal, 3 uM, repeat 2: 19.77%
[3]
  AC50: 243 nM
[4]
  Activity direction (Decrease / Inactive): Inactive
[7]
  viability at 48 h, 1 µM: 104%
  viability at 48 h, 3 µM: 10.8%
[5]; Method 1
  Max Resp (signal direction of the dose response): Decrease
[5]; Method 1, Hill fit, 50% of maximum activity response, read-out: AC50
  AC50: 1120 nM
[5]; Method 1, log10 of molar AC50 from Hill fit
  Log AC50 (M): -5.950 M
[5]; [9]
  activity at 1 µM: 19.7%
[5]; [10]
  activity at 1 µM: 20.4%
[5]; [11]
  activity at 1 µM: 5.15%
[5]; [12]
  activity at 3 µM: 4.48%
[5]; [13]
  activity at 3 µM: 7.19%
[5]; [14]
  activity at 3 µM: 3.33%
[5]; [15]
  AC50: 1000 nM
[5]; [16]
  AC50: 1000 nM
[6]; HepG2 cells
  CC50 at 48 h: 19.8 µM

## C=CC(=O)N1CCCN(c2cc(NCCC(=O)O)nc(-c3ccccn3)n2)CC1 [NCGC00420854-01]
[1]
  AC50: 2.16e-05 M

## COC(=O)CCNc1cc(N2CCCN(C(=O)C(C#N)=C(C)C)CC2)nc(-c2ccccn2)n1 [NCGC00420856-01]
[1]
  AC50: 1.42e-05 M

## C=C[S+](=O)([O-])N1CCCN(c2cc(NCCC(=O)O)nc(-c3ccccn3)n2)CC1 [NCGC00420874-01]
[1]
  AC50: 2.25e-05 M

## CC(C)=C(C#N)C(=O)N1CCCN(c2cc(NCCC(=O)O)nc(-c3ccccn3)n2)CC1 [NCGC00420877-01]
[1]
  AC50: 1.59e-08 M

## CN1CCCC1CCOC(c1cc2nccc(C(=O)O)c2[nH]1)c1ccccc1Cl (stereo not drawn) [NCGC00421826-01]
[1]
  AC50: 6.58e-06 M

## O=C(O)c1ccnc2cc(C(OCCCN3CCCC3)c3ccccc3Cl)[nH]c12 (stereo not drawn) [NCGC00421827-01]
[1]
  AC50: 4.48e-06 M

## CCOC(=O)c1cnn(-c2cc(C(N)=O)ccn2)c1-c1ccc(OC)cc1 [NCGC00421836-01]
[1]
  AC50: 6.33e-06 M

## CCOC(=O)c1ccnc(-n2ncc(C(=O)OCC)c2-c2ccc(OC)cc2)c1 [NCGC00421879-01]
[1]
  AC50: 1.22e-05 M

## CCN(Cc1noc(CC(C)C)n1)C(=O)c1cnc(-c2ccccn2)nc1O [NCGC00438951-02]
[1]
  AC50: 1.85e-05 M

## CN1CCCCC1CCOC(c1cc2nccc(C(=O)O)c2[nH]1)c1ccccc1Cl (stereo not drawn) [NCGC00479006-01]
[1]
  AC50: 1.93e-05 M

## O=C(O)c1ccnc2cc(C(OCCN3CCCCC3)c3ccccc3Cl)[nH]c12 (stereo not drawn) [NCGC00479257-01]
[1]
  AC50: 1.89e-05 M

## O=C(O)c1ccnc2cc(C(OCCCC3CCCCN3)c3ccccc3Cl)[nH]c12 (stereo not drawn) [NCGC00479271-01]
[1]
  AC50: 8.94e-06 M

## CN1CCCC1CCOC(c1cccc(-c2ccccc2)c1)c1cc2nccc(C(=O)O)c2s1 (stereo not drawn) [NCGC00481397-01]
[1]
  AC50: 1.42e-05 M

## O=C(O)c1ccnc(-n2ncc(C(OCCN3CCCCC3)c3ccccc3)c2-c2ccccc2Cl)c1 (stereo not drawn) [NCGC00483104-01]
[1]
  AC50: 1.36e-05 M

## O=C(O)c1ccnc(-n2ncc(C(OCCN3CCCCC3)c3ccccc3Cl)c2-c2ccccc2Cl)c1 (stereo not drawn) [NCGC00487469-01]
[1]
  AC50: 1.85e-05 M

## O=C(O)c1ccnc(-n2ncc(C(OCCN3CCCCC3)c3ccccc3)c2-c2ccccc2)c1 (stereo not drawn) [NCGC00488202-01]
[1]
  AC50: 2.12e-05 M
